Assay results reported in publication PMC12537693, “3-Hydroxytyrosol as a phenolic cholinesterase inhibitor with antiamnesic activity: a multimethodological study of selected plant phenolics” (Frontiers in Pharmacology, 2025).

Experiments:
horse serum BChE = horse serum BChE (Equus caballus, UniProt P81908); test: biochemical; assay type: biochemical; settings: n = 3; for Enzyme inhibition (% ± SD) at 10 mM, BChE / inhibition at 10000 µM: at 10 mM; for inhibition at 10000 µM: read-out: Enzyme inhibition (% ± SD) at 10 mM, BChE
[1] = tested on: scopolamine-induced amnesic mice; test: Passive avoidance test in scopolamine-induced amnesic mice; assay type: in vivo

Sequence of horse serum BChE (P81908 whole entry): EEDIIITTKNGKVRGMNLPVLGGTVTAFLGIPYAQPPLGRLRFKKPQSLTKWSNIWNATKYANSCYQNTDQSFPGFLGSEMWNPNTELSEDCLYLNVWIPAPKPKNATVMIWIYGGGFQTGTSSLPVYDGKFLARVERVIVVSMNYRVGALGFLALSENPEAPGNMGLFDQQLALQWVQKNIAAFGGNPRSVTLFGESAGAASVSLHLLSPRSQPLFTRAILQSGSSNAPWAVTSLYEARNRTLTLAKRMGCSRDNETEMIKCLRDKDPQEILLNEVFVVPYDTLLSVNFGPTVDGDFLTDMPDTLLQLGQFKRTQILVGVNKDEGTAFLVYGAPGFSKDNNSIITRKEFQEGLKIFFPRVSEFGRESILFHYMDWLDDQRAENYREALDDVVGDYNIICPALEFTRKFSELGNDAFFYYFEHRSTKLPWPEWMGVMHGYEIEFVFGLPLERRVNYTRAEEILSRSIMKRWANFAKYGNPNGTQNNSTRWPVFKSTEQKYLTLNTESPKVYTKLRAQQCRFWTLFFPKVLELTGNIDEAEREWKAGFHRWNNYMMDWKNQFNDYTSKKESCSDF

Row | Compound | inhibition at 10000 µM (horse serum BChE; ± SD) [%] | other results
1 | O=c1cc(-c2ccc(O)c(-c3c(O)cc(O)c4c(=O)cc(-c5ccc(O)cc5)oc34)c2)oc2cc(O)cc(O)c12 [Amentoflavone] | < 0 | Enzyme inhibition (% ± SD) at 10 mM, BChE (horse serum BChE): no inhibition
2 | O=c1cc(-c2ccc(O)cc2)oc2cc(O)cc(O)c12 [Apigenin] | < 0 | 
3 | O=C(/C=C/c1ccc(O)c(O)c1)O[C@@H]1C[C@](O)(C(=O)O)C[C@@H](O)[C@H]1O [Chlorogenic acid] | 25.4 ± 1.72 | 
4 | O=c1oc2c(O)c(O)cc3c(=O)oc4c(O)c(O)cc1c4c23 [Ellagic acid] | < 0 | Enzyme inhibition (% ± SD) at 10 mM, BChE (horse serum BChE): no inhibition
5 | O=c1c(O)c(-c2ccc(O)c(O)c2)oc2cc(O)ccc12 [Fisetin] | 76.2 ± 2.48 | IC50 (horse serum BChE; ± SD): 9.62 mM
6 | O=C(O)c1cc(O)c(O)c(O)c1 [Gallic acid] | 84.4 ± 2.25 | Mean latency time (min) ± SEM (2nd day) ([1]; 20 mg/kg i.p., scopolamine 1 mg/kg i.p. 30 min later, 24 h after scopolamine, cutoff 9 min): 6.76 ± 1.11 min; Mean latency time (min) ± SEM (1st day) ([1]; acquisition day, before treatment, group given 20 mg/kg i.p., n = 8): 0.29 ± 0.03 min
7 | O=c1c(-c2ccc(O)cc2)coc2cc(O)cc(O)c12 [Genistein] | < 0 | 
8 | O=c1c(O)c(-c2ccc(O)cc2)oc2cc(O)cc(O)c12 [Kaempferol] | < 0 | 
9 | O=c1cc(-c2ccc(O)c(O)c2)oc2cc(O)cc(O)c12 [Luteolin] | < 0 | Enzyme inhibition (% ± SD) at 10 mM, BChE (horse serum BChE): no inhibition
10 | Oc1ccc(-c2[o+]c3cc(O)cc(O)c3cc2O)cc1 [Pelargonidin] | 25.3 ± 4.13 | 
11 | O=c1c(O)c(-c2ccc(O)c(O)c2)oc2cc(O)cc(O)c12 [Quercetin] | 99.4 ± 0.76 | 
12 | COc1cc(C(=O)O)ccc1O [Vanillic acid] | 35.1 ± 3.21 | 
